# In article PMC6017193, “Structure-Based Discovery of a Series of 5H-Pyrrolo[2,3-b]pyrazine FGFR Kinase Inhibitors” (Molecules : A Journal of Synthetic Chemistry and Natural …, 2018):
# What was measured:
# Assay type in all cases: biochemical
# [1] = biological target: T1, FGFR1 (Homo sapiens, UniProt P11362); experiment: ELISA kinase assay, FGFR1 enzymatic activity
# T1 construct: purchased Millipore
# Method: (§1) The effects of compounds on the activities of indicated (FGFR1 and c-Met) kinases were determined using enzyme-linked immunosorbent assays (ELISAs) with purified recombinant proteins. Briefly, 20 μg/mL poly (Glu, Tyr)4:1 (Sigma, St. Louis, MO, USA) was precoated in 96-well plates as a substrate. A 50-μL aliquot of 10 μmol/L ATP solution diluted in kinase reaction buffer (50 mmol/L HEPES (pH 7.4), 50 mmol/L MgCl2, 0.5 mmol/L MnCl2, 0.2 mmol/L Na3VO4, and 1 mmol/L DTT) was added to each well; 1 μL of various concentrations of compounds diluted in 1% DMSO (v/v) (Sigma) were then added to each reaction well. DMSO (1%, v/v) was used as the negative control. The kinase reaction was initiated by the addition of purified tyrosine kinase proteins FGFR1 (Millipore, Darmstadt, Germany) or c-Met (Millipore) diluted in 49 μL of kinase reaction buffer. After incubation for 60 min at 37 °C, the plate was washed three times with phosphate-buffered saline (PBS) containing 0.1% Tween 20 (T-PBS). Anti-phosphotyrosine (PY99) antibody (Sanra Cruz, Dallas, TX, USA) (100 μL; 1:500, diluted in 5 mg/mL bovine serum albumin (BSA) T-PBS) was then added. After a 30-min incubation at 37 °C, the plate was washed three times, and 100 μL of horseradish peroxidase-conjugated goat anti-mouse IgG (Calbiochem, Shanghai, China) (1:2000, diluted in 5 mg/mL BSA T-PBS) was added. The plate was then incubated at 37 °C for 30 min, and washed three times. A 100-μL aliquot of a solution containing 0.03% H2O2 and 2 mg/mL o-phenylenediamine in 0.1 mol/L citrate buffer (pH 5.5) was added. The reaction was terminated by the addition of 50 μL of 2 mol/L H2SO4 as the color changed, and the plate was analyzed using a multi-well spectrophotometer (SpectraMAX 190, Molecular Devices, Palo Alto, CA, USA) at 490 nm. The inhibition rate (%) was calculated using the following equation:IR = [1 − (A490/A490control)] × 100%.(1) where IR, A490, and A490control are the inhibition rate, the absorbance value of the tested compound at 490 nm, and the absorbance value of the negative control compound at 490 nm, respectively. The IC50 values were calculated from the inhibition curves in two separate experiments.
# [2] = biological target: FGFR3 (Homo sapiens, UniProt P22607); experiment: Kinase panel profiling
# [3] = biological target: T2, c-Met (Homo sapiens, UniProt P08581); experiment: Kinase panel profiling (ELISA kinase assay)
# T2 construct: purchased Millipore
# Method: as §1
# [4] = biological target: KDR (Homo sapiens, UniProt P35968); experiment: Kinase panel profiling
# [5] = biological target: PDGFR-α (Homo sapiens, UniProt P16234); experiment: Kinase panel profiling
# [6] = biological target: ErbB2 (Homo sapiens, UniProt P04626); experiment: Kinase panel profiling
# [7] = biological target: ErbB4 (Homo sapiens, UniProt Q15303); experiment: Kinase panel profiling
# [8] = biological target: EPH-A2 (Homo sapiens, UniProt P29317); experiment: Kinase panel profiling
# [9] = biological target: IGF1R (Homo sapiens, UniProt P08069); experiment: Kinase panel profiling
# [10] = biological target: T3, AXL (Homo sapiens, UniProt P30530); experiment: Kinase panel profiling
# T3 sequence (P30530 26-894): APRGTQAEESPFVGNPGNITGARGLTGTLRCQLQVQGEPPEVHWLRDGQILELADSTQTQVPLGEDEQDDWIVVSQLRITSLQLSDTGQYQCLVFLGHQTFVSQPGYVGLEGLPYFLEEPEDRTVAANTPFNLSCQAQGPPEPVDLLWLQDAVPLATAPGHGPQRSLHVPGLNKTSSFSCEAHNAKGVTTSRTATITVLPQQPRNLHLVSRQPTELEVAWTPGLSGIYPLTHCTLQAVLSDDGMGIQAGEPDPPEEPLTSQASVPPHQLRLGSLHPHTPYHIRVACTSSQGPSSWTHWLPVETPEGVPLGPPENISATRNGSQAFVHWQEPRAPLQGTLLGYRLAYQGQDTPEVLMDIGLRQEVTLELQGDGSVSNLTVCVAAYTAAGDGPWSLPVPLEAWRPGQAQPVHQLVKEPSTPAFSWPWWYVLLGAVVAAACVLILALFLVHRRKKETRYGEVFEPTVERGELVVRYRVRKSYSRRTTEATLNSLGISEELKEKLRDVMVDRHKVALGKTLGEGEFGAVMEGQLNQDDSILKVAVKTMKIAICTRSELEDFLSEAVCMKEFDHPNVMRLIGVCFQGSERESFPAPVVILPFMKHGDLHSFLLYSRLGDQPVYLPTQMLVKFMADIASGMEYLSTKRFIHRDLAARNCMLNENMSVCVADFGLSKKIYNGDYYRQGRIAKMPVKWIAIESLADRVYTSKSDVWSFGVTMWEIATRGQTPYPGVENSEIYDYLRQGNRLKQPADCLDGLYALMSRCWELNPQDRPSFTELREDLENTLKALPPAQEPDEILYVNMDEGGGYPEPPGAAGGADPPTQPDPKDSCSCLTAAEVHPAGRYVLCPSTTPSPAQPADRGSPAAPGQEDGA
# Sequence of FGFR3 (P22607 23-806): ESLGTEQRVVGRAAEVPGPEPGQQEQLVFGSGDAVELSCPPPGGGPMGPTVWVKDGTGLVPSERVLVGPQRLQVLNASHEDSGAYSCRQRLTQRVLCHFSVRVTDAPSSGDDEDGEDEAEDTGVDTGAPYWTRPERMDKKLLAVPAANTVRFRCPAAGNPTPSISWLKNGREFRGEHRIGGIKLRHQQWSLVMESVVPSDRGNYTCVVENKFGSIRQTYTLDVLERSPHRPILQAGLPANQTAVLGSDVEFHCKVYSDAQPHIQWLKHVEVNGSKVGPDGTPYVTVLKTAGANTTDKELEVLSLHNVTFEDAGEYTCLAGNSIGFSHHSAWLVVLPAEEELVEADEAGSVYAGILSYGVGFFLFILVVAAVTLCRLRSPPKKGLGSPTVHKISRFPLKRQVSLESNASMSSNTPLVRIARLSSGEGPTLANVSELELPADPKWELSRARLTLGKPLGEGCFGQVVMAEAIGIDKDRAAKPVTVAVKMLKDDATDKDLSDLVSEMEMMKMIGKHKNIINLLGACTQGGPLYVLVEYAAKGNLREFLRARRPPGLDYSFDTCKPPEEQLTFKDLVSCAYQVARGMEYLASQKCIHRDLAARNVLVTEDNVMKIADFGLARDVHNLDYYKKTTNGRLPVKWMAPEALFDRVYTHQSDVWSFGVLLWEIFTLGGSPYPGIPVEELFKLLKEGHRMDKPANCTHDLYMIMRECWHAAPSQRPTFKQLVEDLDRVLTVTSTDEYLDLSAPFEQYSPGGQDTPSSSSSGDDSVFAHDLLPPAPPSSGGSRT
# Sequence of IGF1R (P08069 31-1367, species assumed): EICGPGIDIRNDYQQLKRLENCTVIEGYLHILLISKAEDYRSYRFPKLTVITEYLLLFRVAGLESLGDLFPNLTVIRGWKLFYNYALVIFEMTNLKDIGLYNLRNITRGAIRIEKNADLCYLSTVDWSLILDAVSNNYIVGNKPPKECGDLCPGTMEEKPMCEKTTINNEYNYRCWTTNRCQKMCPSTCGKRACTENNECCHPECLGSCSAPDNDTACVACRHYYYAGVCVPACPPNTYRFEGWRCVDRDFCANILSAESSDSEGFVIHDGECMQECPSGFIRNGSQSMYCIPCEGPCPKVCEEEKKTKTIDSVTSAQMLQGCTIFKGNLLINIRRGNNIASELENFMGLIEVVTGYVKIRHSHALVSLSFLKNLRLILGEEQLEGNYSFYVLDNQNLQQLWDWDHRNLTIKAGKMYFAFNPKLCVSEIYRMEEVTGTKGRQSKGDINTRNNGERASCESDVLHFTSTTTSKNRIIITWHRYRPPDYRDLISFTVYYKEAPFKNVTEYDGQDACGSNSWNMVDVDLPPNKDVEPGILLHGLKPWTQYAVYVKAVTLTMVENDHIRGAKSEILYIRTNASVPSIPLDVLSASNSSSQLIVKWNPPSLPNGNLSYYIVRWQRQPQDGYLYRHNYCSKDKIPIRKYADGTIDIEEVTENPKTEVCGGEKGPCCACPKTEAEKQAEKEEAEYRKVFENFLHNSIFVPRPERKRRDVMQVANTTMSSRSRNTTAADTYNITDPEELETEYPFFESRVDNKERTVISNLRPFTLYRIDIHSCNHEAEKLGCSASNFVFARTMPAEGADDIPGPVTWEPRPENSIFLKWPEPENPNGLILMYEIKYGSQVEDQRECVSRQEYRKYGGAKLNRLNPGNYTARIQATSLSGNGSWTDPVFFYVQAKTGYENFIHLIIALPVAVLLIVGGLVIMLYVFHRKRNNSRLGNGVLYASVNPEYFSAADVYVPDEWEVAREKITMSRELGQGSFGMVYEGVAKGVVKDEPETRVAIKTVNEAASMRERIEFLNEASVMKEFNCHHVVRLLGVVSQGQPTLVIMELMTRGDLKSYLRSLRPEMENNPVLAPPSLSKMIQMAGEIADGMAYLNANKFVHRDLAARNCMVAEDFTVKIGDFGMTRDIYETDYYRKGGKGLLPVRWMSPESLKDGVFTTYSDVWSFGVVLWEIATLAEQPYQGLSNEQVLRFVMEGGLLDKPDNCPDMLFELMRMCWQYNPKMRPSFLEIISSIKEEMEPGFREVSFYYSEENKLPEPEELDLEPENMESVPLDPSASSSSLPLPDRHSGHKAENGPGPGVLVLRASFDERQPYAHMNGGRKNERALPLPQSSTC
# Sequence of KDR (P35968 20-1356, species assumed): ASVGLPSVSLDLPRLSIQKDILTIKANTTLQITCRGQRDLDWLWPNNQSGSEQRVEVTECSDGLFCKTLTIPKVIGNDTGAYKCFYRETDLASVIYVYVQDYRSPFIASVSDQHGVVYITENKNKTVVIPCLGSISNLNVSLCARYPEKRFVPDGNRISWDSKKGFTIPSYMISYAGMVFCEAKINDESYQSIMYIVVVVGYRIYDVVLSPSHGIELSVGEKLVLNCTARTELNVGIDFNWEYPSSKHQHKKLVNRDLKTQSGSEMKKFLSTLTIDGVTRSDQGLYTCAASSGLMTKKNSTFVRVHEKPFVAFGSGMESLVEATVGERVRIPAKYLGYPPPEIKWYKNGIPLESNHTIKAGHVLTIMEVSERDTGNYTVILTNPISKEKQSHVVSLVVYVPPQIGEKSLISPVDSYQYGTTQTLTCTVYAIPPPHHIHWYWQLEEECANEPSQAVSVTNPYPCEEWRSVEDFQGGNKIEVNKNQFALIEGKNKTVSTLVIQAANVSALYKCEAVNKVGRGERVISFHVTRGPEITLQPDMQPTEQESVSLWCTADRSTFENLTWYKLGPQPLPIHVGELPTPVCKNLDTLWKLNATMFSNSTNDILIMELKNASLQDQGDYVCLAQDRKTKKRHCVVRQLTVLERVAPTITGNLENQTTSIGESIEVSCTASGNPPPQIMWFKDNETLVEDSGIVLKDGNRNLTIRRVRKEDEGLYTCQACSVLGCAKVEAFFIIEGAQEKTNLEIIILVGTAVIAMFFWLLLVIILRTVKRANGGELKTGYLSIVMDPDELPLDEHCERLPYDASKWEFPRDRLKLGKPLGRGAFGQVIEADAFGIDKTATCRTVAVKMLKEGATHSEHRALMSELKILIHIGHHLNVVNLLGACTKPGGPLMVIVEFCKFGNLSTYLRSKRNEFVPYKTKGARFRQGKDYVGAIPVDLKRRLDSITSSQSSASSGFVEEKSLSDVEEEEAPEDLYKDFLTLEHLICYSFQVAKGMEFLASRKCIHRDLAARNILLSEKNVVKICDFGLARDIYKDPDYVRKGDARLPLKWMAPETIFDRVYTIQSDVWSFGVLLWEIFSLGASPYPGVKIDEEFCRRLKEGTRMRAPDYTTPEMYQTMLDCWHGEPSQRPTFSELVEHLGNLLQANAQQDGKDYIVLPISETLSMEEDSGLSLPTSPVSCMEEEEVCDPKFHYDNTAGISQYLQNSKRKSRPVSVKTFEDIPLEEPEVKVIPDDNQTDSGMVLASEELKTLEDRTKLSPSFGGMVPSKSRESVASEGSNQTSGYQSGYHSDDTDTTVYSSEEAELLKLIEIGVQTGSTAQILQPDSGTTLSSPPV
# Sequence of ErbB2 (P04626 23-1255, species assumed): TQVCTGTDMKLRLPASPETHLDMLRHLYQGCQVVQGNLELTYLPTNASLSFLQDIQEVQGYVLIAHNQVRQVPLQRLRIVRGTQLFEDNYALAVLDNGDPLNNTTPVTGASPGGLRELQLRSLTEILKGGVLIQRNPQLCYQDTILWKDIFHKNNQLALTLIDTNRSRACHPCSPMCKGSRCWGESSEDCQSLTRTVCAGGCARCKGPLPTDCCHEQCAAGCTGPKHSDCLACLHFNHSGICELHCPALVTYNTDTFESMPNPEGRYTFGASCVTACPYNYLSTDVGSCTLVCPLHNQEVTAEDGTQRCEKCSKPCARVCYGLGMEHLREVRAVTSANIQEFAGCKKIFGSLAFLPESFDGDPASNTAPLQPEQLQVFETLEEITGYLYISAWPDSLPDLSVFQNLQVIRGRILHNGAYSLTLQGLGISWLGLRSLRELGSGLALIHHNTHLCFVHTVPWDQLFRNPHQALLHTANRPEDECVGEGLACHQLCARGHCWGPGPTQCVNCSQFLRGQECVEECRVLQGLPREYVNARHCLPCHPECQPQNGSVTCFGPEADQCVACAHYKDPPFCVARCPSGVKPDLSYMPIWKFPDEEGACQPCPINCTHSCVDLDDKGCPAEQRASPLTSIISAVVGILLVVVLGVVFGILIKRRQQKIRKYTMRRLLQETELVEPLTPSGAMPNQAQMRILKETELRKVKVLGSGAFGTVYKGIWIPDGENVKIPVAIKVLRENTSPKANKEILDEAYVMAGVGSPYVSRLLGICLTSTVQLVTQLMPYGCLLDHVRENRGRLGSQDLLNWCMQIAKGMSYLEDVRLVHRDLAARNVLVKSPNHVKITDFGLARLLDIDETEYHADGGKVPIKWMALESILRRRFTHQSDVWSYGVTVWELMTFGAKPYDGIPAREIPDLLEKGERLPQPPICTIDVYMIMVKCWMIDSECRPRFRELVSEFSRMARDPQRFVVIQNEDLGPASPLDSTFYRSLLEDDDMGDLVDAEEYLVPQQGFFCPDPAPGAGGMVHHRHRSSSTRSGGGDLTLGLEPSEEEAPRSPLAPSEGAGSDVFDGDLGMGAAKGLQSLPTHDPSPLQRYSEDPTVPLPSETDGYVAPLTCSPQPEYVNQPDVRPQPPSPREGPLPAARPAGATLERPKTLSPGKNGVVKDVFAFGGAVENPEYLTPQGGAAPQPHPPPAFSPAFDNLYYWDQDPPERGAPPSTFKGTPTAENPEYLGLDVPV
structure (smiles),measurement,setting,value
"O=S(=O)(c1cn(CCF)cn1)n1ccc2ncc(-c3cn[nH]c3)nc21 [Compound 13, 5-((1-(2-fluoroethyl)-1H-imidazol-4-yl)sulfonyl)-3-(1H-pyrazol-4-yl)-5H-pyrrolo[2,3-b]pyrazine]",inhibition at 0.01 µM,"[1]; 0.01 μM (10 nM), mean of two separate experiments",> 90%
same,inhibition at 0.1 µM,"[1]; 0.1 μM, mean of two separate experiments",91.7%
same,inhibition at 1 µM,"[1]; 1 μM, mean of two separate experiments",100%
same,IC50,[1]; mean ± SD from two separate experiments,0.6 ± 0.2 nM
same,inhibition at 0.01 µM,[2]; 10 nM,42.9%
same,inhibition at 0.1 µM,[2]; 100 nM,79%
same,inhibition at 1 µM,[2]; 1000 nM,88.9%
same,inhibition at 0.01 µM,[3]; 10 nM,3.9%
same,inhibition at 0.1 µM,[3]; 100 nM,3.9%
same,Kinase Inhibition (%) c-Met,[3]; 1000 nM (1 μM),nearly no inhibition
same,inhibition at 1 µM,[3]; 1000 nM (1 μM),4.6%
same,inhibition at 0.01 µM,[4]; 10 nM,7.4%
same,inhibition at 0.1 µM,[4]; 100 nM,17.1%
same,inhibition at 1 µM,[4]; 1000 nM,46.3%
same,inhibition at 0.01 µM,[5]; 10 nM,21.9%
same,inhibition at 0.1 µM,[5]; 100 nM,20.9%
same,inhibition at 1 µM,[5]; 1000 nM,23.2%
same,inhibition at 0.01 µM,[6]; 10 nM,0%
same,inhibition at 0.1 µM,[6]; 100 nM,0%
same,inhibition at 1 µM,[6]; 1000 nM,0%
same,inhibition at 0.01 µM,[7]; 10 nM,0%
same,inhibition at 0.1 µM,[7]; 100 nM,0%
same,inhibition at 1 µM,[7]; 1000 nM,3%
same,inhibition at 0.01 µM,[8]; 10 nM,0%
same,inhibition at 0.1 µM,[8]; 100 nM,0%
same,inhibition at 1 µM,[8]; 1000 nM,0%
same,inhibition at 0.01 µM,[9]; 10 nM,-3.8%
same,inhibition at 0.1 µM,[9]; 100 nM,3%
same,inhibition at 1 µM,[9]; 1000 nM,11.8%
same,inhibition at 0.01 µM,[10]; 10 nM,1.1%
same,inhibition at 0.1 µM,[10]; 100 nM,2.9%
same,inhibition at 1 µM,[10]; 1000 nM,-5.5%
